Reference: patent US7070960B2, “Method of increasing product expression through solute stress” (Chiron Corporation, priority 1987, dated 2006)

Tests used:
454A12 hybridomas = assay: Effect of sodium chloride on IgG production by hybridoma 454A12; assay type: cell-based, murine
Method: In another experiment, the 454A12 hybridomas were grown in shake flasks with commercially available HL-1 medium (Ventrex) supplemented with 8 mM glutamine. Osmolality of the standard (control) HL-1 medium was 300 mOsmol/kg. In the test sample, the osmolality was increased to 400 mOsmol/kg using sodium chloride. The result of solute stress in the test sample was evidenced by a 50% decrease in maximum cell density. In the stressed condition, the specific IgG production rate per cell increased throughout the culture period The increase in specific productivity was greatest during the post exponential phase period of the culture when specific productivity was more than 60% higher under the stressed condition (FIG. 3).

hybridoma D-234 = assay: Effect of NH4Cl on D-234 growth and IgM production; assay type: cell-based, human/human/murine trioma; settings: 10 mM NH4Cl
Method: The hybridoma D-234 was grown in HL-1 serum-free medium supplemented with 0.1% Pluronic polyol F-68, 10 mM glutamine and 10 mM NH4Cl. A control was also run without NH4Cl. One hundred ml cultures in 250 ml shake flasks were inoculated at an initial density of 1×10^5 viable cells/ml (91% viability).

D-234 = assay: Effect of Na lactate on D-234 growth and IgM production; assay type: cell-based, human/human/murine trioma
Method: Approximately 1×10^5 cells/ml of D-234 were grown in 250 ml shake flasks (agitated at 100 rpm) in HL-1 medium containing 0.1% Pluronic polyol F-68 and 8 mM glutamine. A 1 M stock solution of sodium lactate (pH 7.4) in HL-1 was added to the medium. A preliminary screen of the effect of a broad range of sodium lactate concentrations (0–100 mM) on D-234 growth and IgM production was run. […] Cell densities at day four were reduced at all levels of lactate tested with a critical drop between 40 and 60 mM.

## [Cl-].[Na+] [sodium chloride]
454A12 hybridomas; 400 mOsmol/kg using sodium chloride versus 300 mOsmol/kg control
  decrease in maximum cell density: 50%
454A12 hybridomas; 400 mOsmol/kg using sodium chloride, post exponential phase period
  increase in specific IgG productivity: more than 60%

## Cl.N [NH4Cl, ammonium chloride]
Hybridoma D-234
  increase in the production of IgM: 2 fold
Hybridoma D-234; control 2.3×10^6/ml
  maximum total cell density: 1.1e+06 mL⁻¹

## CC(O)C(=O)[O-].[Na+] (stereo not shown) [Na Lactate, sodium lactate]
D-234; 20 mM initial lactate, Day 2, 0 mM 4.7
  Total Cell Density: 5.6 1 × 10^5/ml
D-234; 20 mM initial lactate, Day 2, 0 mM 95
  % Viability: 96%
D-234; 20 mM initial lactate, Day 4, 0 mM 10
  IgM: 20 µg/mL
D-234; 20 mM initial lactate, Day 4, 0 mM 21.0
  Total Cell Density: 15.0 1 × 10^5/ml
D-234; 20 mM initial lactate, Day 4, 0 mM 90
  % Viability: 92%
D-234; 20 mM initial lactate, Day 7, 0 mM 24
  IgM: 35 µg/mL
D-234; 40 mM initial lactate, Day 2
  % Viability: 92%
  Total Cell Density: 5.1 1 × 10^5/ml
D-234; 40 mM initial lactate, Day 4
  % Viability: 89%
  IgM: 22 µg/mL
  Total Cell Density: 12.9 1 × 10^5/ml
D-234; 40 mM initial lactate, Day 7
  IgM: 54 µg/mL
D-234; 60 mM initial lactate, Day 2
  % Viability: 93%
  Total Cell Density: 2.2 1 × 10^5/ml
D-234; 60 mM initial lactate, Day 4
  % Viability: 87%
  IgM: 19 µg/mL
  Total Cell Density: 4.1 1 × 10^5/ml
D-234; 60 mM initial lactate, Day 7, control 24
  IgM: 61 µg/mL
D-234; 80 mM added lactate
  cell density as % of the control: 12%
D-234; 80 mM initial lactate, Day 2
  % Viability: 81%
  Total Cell Density: 2.1 1 × 10^5/ml
D-234; 80 mM initial lactate, Day 4
  % Viability: 65%
  IgM: 15 µg/mL
  Total Cell Density: 2.6 1 × 10^5/ml
D-234; 80 mM initial lactate, Day 7
  IgM: 28 µg/mL
D-234; 100 mM initial lactate, Day 2
  % Viability: 72%
  Total Cell Density: 2.2 1 × 10^5/ml
D-234; 100 mM initial lactate, Day 4
  % Viability: 50%
  IgM: 11 µg/mL
  Total Cell Density: 2.0 1 × 10^5/ml
D-234; 100 mM initial lactate, Day 7
  IgM: 14 µg/mL
D-234; at 60 mM added lactate
  increase in specific (per cell) productivity: up to 14 fold
D-234; levels of added lactate above 40 mM, screen 0–100 mM
  effect on growth: greatly inhibited
